Data: ChEMBL document CHEMBL5528044, “Exploring the Function of (+)-Naltrexone Precursors: Their Activity as TLR4 Antagonists and Potential in Treating Morphine Addiction” (J Med Chem, 2024)
Active and inactive are the calls of the source. The calls are words filed in the database; no cut-off is given here.

What was measured:
Toll-like receptor 4 = target: T1, Toll-like receptor 4 (Mus musculus, UniProt Q9QUK6); assay: Antagonist activity at TLR4 in mouse BV-2 cells assessed as inhibition of LPS-induced NO overproduction incubated for 24 hrs by 2,3-diaminonaphthalene reagent based microplate reader analysis; type: cell-based
T1 sequence (Q9QUK6 whole entry): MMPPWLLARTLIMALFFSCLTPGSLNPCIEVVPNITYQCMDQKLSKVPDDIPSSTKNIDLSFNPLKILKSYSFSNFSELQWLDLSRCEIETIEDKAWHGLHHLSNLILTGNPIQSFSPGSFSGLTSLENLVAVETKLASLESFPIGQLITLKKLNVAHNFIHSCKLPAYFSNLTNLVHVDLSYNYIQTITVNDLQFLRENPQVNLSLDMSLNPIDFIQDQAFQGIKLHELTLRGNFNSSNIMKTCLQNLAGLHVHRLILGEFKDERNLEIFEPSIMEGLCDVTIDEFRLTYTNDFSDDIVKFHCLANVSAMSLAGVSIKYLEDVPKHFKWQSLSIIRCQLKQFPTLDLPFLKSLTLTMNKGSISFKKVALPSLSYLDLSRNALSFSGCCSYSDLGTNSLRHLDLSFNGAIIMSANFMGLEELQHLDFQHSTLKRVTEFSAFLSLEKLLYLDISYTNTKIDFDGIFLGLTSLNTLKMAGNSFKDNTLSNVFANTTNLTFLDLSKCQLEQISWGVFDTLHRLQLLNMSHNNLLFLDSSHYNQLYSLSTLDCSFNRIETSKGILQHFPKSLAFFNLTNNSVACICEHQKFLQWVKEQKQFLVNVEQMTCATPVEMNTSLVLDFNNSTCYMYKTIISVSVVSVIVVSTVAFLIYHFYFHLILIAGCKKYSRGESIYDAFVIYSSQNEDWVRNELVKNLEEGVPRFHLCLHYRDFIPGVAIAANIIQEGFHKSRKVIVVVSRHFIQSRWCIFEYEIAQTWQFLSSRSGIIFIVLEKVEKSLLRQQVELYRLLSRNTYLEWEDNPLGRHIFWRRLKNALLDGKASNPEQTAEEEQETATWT

[1] = target: T2, Toll-like receptor 4 (Mus musculus) (UniProt Q9QUK6); assay: Antagonist activity at TLR4 signaling pathway in mouse BV-2 cells assessed as downregulation of LPS-induced IKKbeta phosphorylation at 5 uM incubated for 1 hr by Western blot analysis; type: cell-based
T2 sequence (whole entry): T1 sequence (Q9QUK6 whole entry)

[2] = target: T2, Toll-like receptor 4 (Mus musculus); assay: Antagonist activity at TLR4 signaling pathway in mouse BV-2 cells assessed as inhibition of LPS-induced TRIF recruitment at 5 uM incubated for 1 hr by co-immunoprecipitation based Western blot analysis; type: cell-based
[3] = target: T2, Toll-like receptor 4 (Mus musculus); assay: Antagonist activity at TLR4 in mouse BV-2 cells assessed as inhibition of LPS-induced NF-kappaB activation at 4 uM incubated for 24 hrs by dual-glo luciferase assay; type: cell-based
[4] = target: T2, Toll-like receptor 4 (Mus musculus); assay: Antagonist activity at TLR4 signaling pathway in mouse BV-2 cells assessed as downregulation of LPS-induced JNK phosphorylation at 5 uM incubated for 1 hr by Western blot analysis; type: cell-based
[5] = target: T2, Toll-like receptor 4 (Mus musculus); assay: Antagonist activity at TLR4 signaling pathway in mouse BV-2 cells assessed as inhibition of LPS-induced MyD88 recruitment at 5 uM incubated for 1 hr by co-immunoprecipitation based Western blot analysis; type: cell-based
[6] = target: T2, Toll-like receptor 4 (Mus musculus); assay: Antagonist activity at TLR4 signaling pathway in mouse BV-2 cells assessed as downregulation of LPS-induced ERK phosphorylation at 5 uM incubated for 1 hr by Western blot analysis; type: cell-based
[7] = target: T2, Toll-like receptor 4 (Mus musculus); assay: Antagonist activity at TLR4 in mouse BV-2 cells assessed as inhibition of LPS-induced TNF-alpha production at 0.01 to 100 uM by ELISA; type: cell-based; details: dose 0.01-100 µM
[8] = target: T2, Toll-like receptor 4 (Mus musculus); assay: Antagonist activity at TLR4 signaling pathway in mouse BV-2 cells assessed as downregulation of LPS-induced IKKalpha phosphorylation at 5 uM incubated for 1 hr by Western blot analysis; type: cell-based
[9] = target: T2, Toll-like receptor 4 (Mus musculus); assay: Antagonist activity at TLR4 signaling pathway in mouse BV-2 cells assessed as downregulation of LPS-induced IRF-3 phosphorylation at 5 uM incubated for 1 hr by Western blot analysis; type: cell-based
Mus musculus [10] = assay: Inhibition of chronic morphine-induced microglia activation in Balb/c mouse assessed as reduction in microglia cell number in brain ventral tegmental area region at 0.2 mg/kg,ip administrated for 6 consecutive days by immunofluorescence staining based analysis; type: functional, organism-based
Mus musculus [11] = assay: Inhibition of chronic morphine-induced microglia activation in Balb/c mouse assessed as reduction in Iba1 expression in brain ventral tegmental area region at 0.2 mg/kg,ip administrated for 6 consecutive days by immunofluorescence staining based analysis; type: functional, organism-based
Mus musculus [12] = assay: Inhibition of chronic morphine-induced microglia activation in Balb/c mouse assessed as reduction in TNF-alpha mRNA expression in brain medial prefrontal cortex region at 0.2 mg/kg,ip administrated for 6 consecutive days by qPCR analysis; type: functional, organism-based
Mus musculus [13] = assay: Inhibition of morphine-induced addiction behavior in Balb/c mouse assessed reduction in CPP score at 0.2 mg/kg,ip administrated for 6 consecutive days by conditioned place preference assay; type: functional, organism-based
Mus musculus [14] = assay: Inhibition of chronic morphine-induced microglia activation in Balb/c mouse assessed as reduction in microglia cell number in brain medial prefrontal cortex region at 0.2 mg/kg,ip administrated for 6 consecutive days by immunofluorescence staining based analysis; type: functional, organism-based
Mus musculus [15] = assay: Inhibition of morphine-induced addiction behavior in Balb/c mouse assessed as decrease in locomotor activity at 0.2 mg/kg,ip administrated on day 4 to 10 by open-field test; type: functional, organism-based; details: time 7.0 day
Mus musculus [16] = assay: Inhibition of chronic morphine-induced microglia activation in Balb/c mouse assessed as reduction in microglia cell number in brain nucleus accumbens region at 0.2 mg/kg,ip administrated for 6 consecutive days by immunofluorescence staining based analysis; type: functional, organism-based
Mus musculus [17] = assay: Inhibition of chronic morphine-induced microglia activation in Balb/c mouse assessed as reduction in TNF-alpha mRNA expression in brain ventral tegmental area region at 0.2 mg/kg,ip administrated for 6 consecutive days by qPCR analysis; type: functional, organism-based
Mus musculus [18] = assay: Inhibition of chronic morphine-induced microglia activation in Balb/c mouse assessed as reduction in TNF-alpha mRNA expression in brain nucleus accumbens region at 0.2 mg/kg,ip administrated for 6 consecutive days by qPCR analysis; type: functional, organism-based
Mus musculus [19] = assay: Inhibition of chronic morphine-induced microglia activation in Balb/c mouse assessed as reduction in Iba1 expression in brain medial prefrontal cortex region at 0.2 mg/kg,ip administrated for 6 consecutive days by immunofluorescence staining based analysis; type: functional, organism-based
Mus musculus [20] = assay: Inhibition of chronic morphine-induced microglia activation in Balb/c mouse assessed as reduction in Iba1 expression in nucleus accumbens region at 0.2 mg/kg,ip administrated for 6 consecutive days by immunofluorescence staining based analysis; type: functional, organism-based

COc1ccc2c3c1O[C@@H]1C(OC)(OC)CC[C@@H]4[C@H](C2)N(C)CC[C@]341
IC50 (Toll-like receptor 4): > 200 µM

COC1=C[C@@H]2[C@@H]3Cc4ccc(OC)c(O)c4[C@]2(CCN3C)CC1=O [SINOMENINE]
IC50 (Toll-like receptor 4): > 200 µM

COc1ccc2c3c1O[C@@H]1C(=O)CC[C@]4(OC(C)=O)[C@H](C2)N(C)CC[C@@]314
IC50 (Toll-like receptor 4): > 200 µM

COC1=CC[C@@H]2[C@@H]3Cc4ccc(OC)c5c4[C@]2(CCN3C)[C@@H]1O5
IC50 (Toll-like receptor 4): > 200 µM

CN1CC[C@@]23c4c5ccc(O)c4O[C@@H]2C(=O)CC[C@]3(O)[C@@H]1C5
Activity [1]: inactive | Activity [2]: inactive | Activity [3]: inactive | Activity [4]: inactive | IC50 (Toll-like receptor 4): 33.5 µM | Activity [5]: inactive | Activity [6]: inactive | Activity [7]: inactive | Activity [8]: inactive | Activity [9]: inactive

COc1ccc2c3c1O[C@@H]1C(=O)CC[C@@H]4[C@H](C2)N(C)CC[C@@]314
IC50 (Toll-like receptor 4): > 200 µM

COc1ccc2c(c1O)[C@@]13CCN(C)[C@@H](C2)[C@H]1CC(OC)C(=O)C3 (some centres not stated)
IC50 (Toll-like receptor 4): > 200 µM

O=C1CC[C@]2(O)[C@@H]3Cc4ccc(O)c5c4[C@]2(CCN3CC2CC2)[C@@H]1O5
inhibition (Mus musculus [10]): inactive | inhibition (Mus musculus [11]): inactive | inhibition (Mus musculus [12]): inactive | inhibition (Mus musculus [13]): inactive | inhibition (Mus musculus [14]): inactive | inhibition (Mus musculus [15]): Active | inhibition (Mus musculus [16]): inactive | inhibition (Mus musculus [17]): inactive | inhibition (Mus musculus [18]): inactive | inhibition (Mus musculus [19]): inactive | inhibition (Mus musculus [20]): inactive

COC1=CC=C2[C@@H]3Cc4ccc(OC)c5c4[C@]2(CCN3C)[C@@H]1O5
IC50 (Toll-like receptor 4): 197 µM

COc1ccc2c3c1O[C@@H]1C(OC)(OC)C(Br)C[C@@H]4[C@H](C2)N(C)CC[C@]341 (some centres not stated)
IC50 (Toll-like receptor 4): > 200 µM

COc1ccc2c3c1O[C@@H]1C(=O)C=C[C@@H]4[C@H](C2)N(C)CC[C@@]314
IC50 (Toll-like receptor 4): 6.9 µM

COc1ccc2c3c1O[C@@H]1C(=O)CC[C@]4(OC(C)=O)[C@H](C2)N(C#N)CC[C@@]314
IC50 (Toll-like receptor 4): 67.8 µM

COc1ccc2c3c1O[C@@H]1C(=O)CC[C@]4(O)[C@H](C2)N(C)CC[C@@]314 (single isomer, unassigned)
Activity [1]: inactive | Activity [2]: inactive | Activity [3]: inactive | Activity [4]: inactive | IC50 (Toll-like receptor 4): > 200 µM | Activity [5]: inactive | Activity [6]: inactive | Activity [7]: inactive | Activity [8]: inactive | Activity [9]: inactive

COc1ccc2c3c1O[C@@H]1C(=O)CC[C@]4(O)[C@H](C2)NCC[C@@]314
IC50 (Toll-like receptor 4): > 200 µM
